The text below walks through data of patent publication US12109218B2, “Compositions of grapiprant and methods for using the same” (ARATANA THERAPEUTICS, INC., priority 2014, dated 2024).

The structures appear in SMILES notation.

In this experiment the test system is meniscal release model of osteoarthritis. In words: Meniscal release model of osteoarthritis in dogs (Example 8). In kind it is in vivo. Conditions: 5 mg/kg daily. The procedure:
Twenty intact adult female hounds underwent surgical meniscal release of the right stifle and were maintained for at least 8 weeks to allow osteoarthritis to develop. […] Animals were randomized into three groups: negative control (n=6), positive control (n=7) treated with 5 mg/kg firocoxib daily, and grapiprant (n=7) dosed once daily at 30 mg/kg. Dosing was based on baseline bodyweight.
Baseline physical exams, bodyweights, hematology, serum chemistry and urinalysis were obtained on study Day −1 and repeated on Day 13. Orthopedic assessments were conducted on Day −1, Day 2, Day 6, and Day 13, including a kinetics assessment using the GAITRite system to determine left hindlimb: right hindlimb ratios for peak pressure, stride length, step length, and stance time, a 5-point scale lameness evaluation, VAS assessments of right hindlimb function, right stifle pain and effusion, and comfortable range of motion measurements of both stifles using a goniometer.

In the case of `CC1(C)OC(=O)C(OCC2CC2)=C1c1ccc(S(C)(=O)=O)cc1` [firocoxib, reference compound], the “peak pressure ratios, lameness and function scores compared to baseline” value is “improved statistically significant mean peak pressure ratios on Day 13 and in mean lameness and mean function scores on Day 6 and 13 compared to baseline”.
